Data reported in publication PMC13588620, “Linear antibody epitope prediction using AlphaFold2” (eLife, 2026).
“Also recorded” adds a separate entry of the source.

Test system: mBG17 binding to SARS-CoV-2 nucleocapsid protein
Assay: Alanine-scan peptide competition ELISA with serial peptide dilution
Parameters: species or system mouse
Conditions: 4-fold serial dilution of peptide from 40 μg to ~2.5 ng; absorbance at 450 nm; n=3; percentage of binding from no-peptide control

Sequence	competition of mBG17 binding to nucleocapsid protein by alanine mutant peptides, compared with the WT peptide
ADFSKQLQQS [D1A]	no change in competition; also recorded: less disruptive to binding
DDASKQLQQS [F3A]	strong reductions in competition
DDFSKALQQS [Q6A]	minor reductions in competition; also recorded: less disruptive to binding
DDFSKQAQQS [L7A]	strong reductions in competition
DDFSKQLAQS [Q8A]	strong reductions in competition
DDFSKQLQQS [a.a. 401–410]	strong competition
